Experiment [1] relates to benzodiazepine receptor. The experiment can be described thus: in vivo benzodiazepine receptor binding (3H-flunitrazepam binding in brain). To be noted: mouse. As for the experimental part:
In vivo benzodiazepine receptor binding is determined essentially as described in Eur. J. Pharmacol. 48, 213 (1978) and Nature 275, 551 (1978). Test compounds in a corn starch vehicle are administered orally or intraperitoneally to mice or rats. A decrease in the binding of ^3 H-flunitrazepam in the brain of drug-treated animals (as compared with the binding observed in animals treated with vehicle alone) is indicative of benzodiazepine receptor binding by the test compound.

Experiment [2] concerns the target benzodiazepine receptor. The experiment can be described thus: in vitro benzodiazepine receptor binding assay, tritiated flunitrazepam as radioactive ligand. To be noted: 0.5 nM tritiated flunitrazepam; read-out: IC50, concentration required to inhibit the specific binding of tritiated flunitrazepam by 50%. Here is the method: The benzodiazepine receptor binding properties indicative of the nervous system regulatory activity of said new compounds are determined in the receptor binding assay in vitro, e.g. similarly to that in Nature 266, 732 (1977) or Proc. Nat. Acad. Sci. USA 74, 3805 (1977), using tritiated flunitrazepam as the radioactive ligand. The concentration of the compounds of this invention, required to inhibit the specific binding of 0.5 nM of tritiated flunitrazepam by 50%, i.e. the IC50, is determined graphically.

The subject of the next experiment is rat. The experiment in a line: Metrazole (pentylenetetrazole) test for anticonvulsant activity. Type of experiment: in vivo. The conditions noted are these: po. The text has this:
Anticonvulsant effects are observed, for example in the standard Metrazole (pentylenetetrazole) test for assessing anticonvulsant activity, e.g. orally in the rat as described in U.S. Pat. No. 4,479,955.

Consider `Cl.c1ccc(-c2nnc3n2-c2ccccc2Cn2cccc2-3)nc1` [Example 1, 3-(2-Pyridinyl)-9H-pyrrolo[2,1-c]-1,2,4-triazolo[4,3-a][1,4]benzodiazepine Hydrochloride], for which the “inhibition of flunitrazepam binding in vivo” value (from here on “inhibition”) in the experiment with benzodiazepine receptor [1] (30 mg/kg p.o.) is given as “about 67%”. The IC50 at benzodiazepine receptor [2] was approximately 4 nM. Moreover, the ED50 in the experiment on rat was approximately 3 mg/kg.
`Cl.Clc1ccc2c(c1)-n1c(-c3ccccn3)nnc1-c1cccn1C2` [Example 3, 6-Chloro-3-(2-pyridinyl)-9H-pyrrolo[2,1-c]-1,2,4-triazolo[4,3-a][1,4]benzodiazepine Hydrochloride]: the “inhibition” value in the experiment on benzodiazepine receptor [1] (5.3 mg/kg p.o.) was approximately 50%. Further, at benzodiazepine receptor [2], the IC50 was approximately 0.7 nM.
Turning to `Cl.FC(F)(F)c1ccc2c(c1)-n1c(-c3ccccn3)nnc1-c1cccn1C2` [Example 4, 6-Trifluoromethyl-3-(2-pyridinyl)-9H-pyrrolo[2,1-c]-1,2,4-triazolo[4,3-a][1,4]benzodiazepine Hydrochloride], in the experiment on benzodiazepine receptor [1] (0.6 mg/kg p.o.), the “inhibition” value is approximately 50%. For the same compound, on benzodiazepine receptor [2], the IC50 is approximately 0.4 nM.
Consider `COc1cc2c(cc1OC)-n1c(-c3ccccn3)nnc1-c1cccn1C2.Cl` [Example 7f, 6,7-dimethoxy-3-(2-pyridinyl)-9H-pyrrolo[2,1-c]-1,2,4-triazolo[4,3-a][1,4]benzodiazepine hydrochloride], for which the “inhibition” value in the experiment on benzodiazepine receptor [1] (30 mg/kg p.o.) is given as approximately 75%. Besides, the IC50 at benzodiazepine receptor [2] is approximately 1 nM.
